This is an account of results in PubChem BioAssay AID192 (DTP/NCI, 2004).

Where “and” joins values, the source holds several entries; their conditions need not be identical. Identical values can stand only once. Toxic doses and inconclusive results are not listed.

The experiment relates to BDF1 mice, B16 melanoma ip, median survival T/C. The experiment in a line: NCI In Vivo Anticancer Drug Screen. Data for tumor model B16 Melanoma (intraperitoneal) in B6D2F1 (BDF1) mice. The conditions noted are these: endpoint: median survival time, higher = longer survival. The method in brief:
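Mice with transplantable tumors; drug vs vehicle groups; endpoint survival or tumor size; value = T/C.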

The mark [1] stands for this setting: dose: 6.25 mg/kg/injection, schedule: Q01DX009 (ip), vehicle: saline with Tween-80.
Setting [2] is: dose: 12.5 mg/kg/injection, schedule: Q01DX009 (ip), vehicle: saline with Tween-80.
The mark [3] stands for this setting: dose: 12.5 mg/kg/injection, schedule: Q04DX003 (ip), vehicle: Klucel (hydroxypropylcellulose) (HPC).
The mark [4] stands for this setting: dose: 25.0 mg/kg/injection, schedule: Q04DX003 (ip), vehicle: Klucel (hydroxypropylcellulose) (HPC).
Setting [5] is: dose: 50.0 mg/kg/injection, schedule: Q04DX003 (ip), vehicle: Klucel (hydroxypropylcellulose) (HPC).
[6] abbreviates: dose: 25.0 mg/kg/injection, schedule: Q01DX009 (ip), vehicle: saline with Tween-80.
Where [7] appears, read: dose: 50.0 mg/kg/injection, schedule: Q01DX009 (ip), vehicle: saline with Tween-80.
The mark [8] stands for this setting: dose: 12.5 mg/kg/injection, schedule: Q01DX009 (ip), vehicle: saline.
Setting [9] is: dose: 12.5 mg/kg/injection, schedule: Q01DX009 (ip), vehicle: water.
The mark [10] stands for this setting: dose: 20.0 mg/kg/injection, schedule: Q01DX009 (ip), vehicle: water.
Setting [11] is: dose: 25.0 mg/kg/injection, schedule: Q01DX009 (ip), vehicle: water.
[12] abbreviates: dose: 40.0 mg/kg/injection, schedule: Q01DX009 (ip), vehicle: water.
[13] abbreviates: dose: 50.0 mg/kg/injection, schedule: Q01DX009 (ip), vehicle: saline.
Setting [14] is: dose: 50.0 mg/kg/injection, schedule: Q01DX009 (ip), vehicle: water.
The mark [15] stands for this setting: dose: 80.0 mg/kg/injection, schedule: Q01DX009 (ip), vehicle: water.
Where [16] appears, read: dose: 100.0 mg/kg/injection, schedule: Q01DX009 (ip), vehicle: saline.
Setting [17] is: dose: 100.0 mg/kg/injection, schedule: Q01DX009 (ip), vehicle: saline with Tween-80.
Setting [18] is: dose: 200.0 mg/kg/injection, schedule: Q01DX009 (ip), vehicle: saline with Tween-80.
[19] abbreviates: dose: 400.0 mg/kg/injection, schedule: Q01DX009 (ip), vehicle: saline with Tween-80.
Setting [20] is: dose: 6.25 mg/kg/injection, schedule: Q01DX009 (ip), vehicle: saline.

As to `O=C1C(=O)c2ccccc2-c2ccccc21`, the T/C (dose: 1.56 mg/kg/injection, schedule: Q01DX009 (ip), vehicle: saline with Tween-80) was 100 % of control; the T/C (dose: 3.13 mg/kg/injection, schedule: Q01DX009 (ip), vehicle: saline with Tween-80) is 89 % of control; the T/C (dose: 6.25 mg/kg/injection, schedule: Q01DX009 (ip), vehicle: Klucel (hydroxypropylcellulose) (HPC)) is 102 % of control; the T/C under setting [1] is 97 % of control; the T/C (dose: 12.5 mg/kg/injection, schedule: Q01DX009 (ip), vehicle: Klucel (hydroxypropylcellulose) (HPC)) was 101 % of control; the T/C under setting [2] is 100 % of control. In addition, the T/C was 98 % of control under setting [3]; 104 % of control (dose: 25.0 mg/kg/injection, schedule: Q01DX009 (ip), vehicle: Klucel (hydroxypropylcellulose) (HPC)); 89 % of control under setting [4]; 109 % of control (dose: 50.0 mg/kg/injection, schedule: Q01DX009 (ip), vehicle: Klucel (hydroxypropylcellulose) (HPC)); 98 % of control under setting [5]; 166 % of control (dose: 50.0 mg/kg/injection, schedule: Q04DX003 (ip), vehicle: saline with Tween-80). Moreover, the T/C (dose: 100.0 mg/kg/injection, schedule: Q04DX003 (ip), vehicle: Klucel (hydroxypropylcellulose) (HPC)) is 89 % of control.
For `COC(=O)C(F)C(Br)C(=O)OC` (stereo unspecified), the T/C was 105 % of control (dose: 3.12 mg/kg/injection, schedule: Q01DX009 (ip), vehicle: saline with Tween-80); 99 % of control under setting [1]; 94 % of control under setting [2]; 99 % of control under setting [6]; 98 % of control under setting [7].
As to `O=C(O)c1[nH]c(=O)[nH]c(=O)c1N1CCCCC1`, the T/C reads like this: under setting [4], 110 % of control; under setting [5], 86 % of control.
For the molecule `Nc1ncnc2c1ncn2C1OC(COP(=O)(O)O)C(O)C1O` (stereo unspecified), the T/C is 124 % of control under setting [8]; 112 % of control under setting [9]; 113 % of control under setting [10]; 108 % of control under setting [11]; 110 % of control under setting [12]; 116 % of control under setting [13]. Also, the T/C runs as follows: under setting [14], 108 % of control; under setting [15], 104 % of control; under setting [16], 121 % of control; (dose: 100.0 mg/kg/injection, schedule: Q01DX009 (ip), vehicle: water) 118 % of control; (dose: 160.0 mg/kg/injection, schedule: Q01DX009 (ip), vehicle: water) 113 % of control; (dose: 200.0 mg/kg/injection, schedule: Q01DX009 (ip), vehicle: water) 118 % of control. The T/C runs as follows: (dose: 320.0 mg/kg/injection, schedule: Q01DX009 (ip), vehicle: water) 124 % of control; (dose: 400.0 mg/kg/injection, schedule: Q01DX009 (ip), vehicle: water) 117 % of control.
For `COc1c2c(cc3c1OCO3)CCN(C)C2`, the T/C runs as follows: (dose: 10.0 mg/kg/injection, schedule: Q01DX009 (ip), vehicle: saline) 95 % of control; (dose: 20.0 mg/kg/injection, schedule: Q01DX009 (ip), vehicle: saline) 99 % of control; (dose: 40.0 mg/kg/injection, schedule: Q01DX009 (ip), vehicle: saline) 100 % of control; (dose: 80.0 mg/kg/injection, schedule: Q01DX009 (ip), vehicle: saline) 91 % of control.
Turning to `CC1(C)N=C(N)N=C(N)N1c1ccc(OCCCNC(=O)Nc2cccc(S(=O)(=O)F)c2)c(Cl)c1`, the T/C is 102 % of control (dose: 25.0 mg/kg/injection, schedule: Q01DX009 (ip), vehicle: saline) and 124 % of control under setting [13].
Take `NC(=S)N/N=C1/c2cc(Cl)ccc2-c2c(Cl)cc(Cl)cc21`: the T/C by setting is: under setting [17], 93 % of control; under setting [18], 95 % of control; under setting [19], 93 % of control; (dose: 800.0 mg/kg/injection, schedule: Q01DX009 (ip), vehicle: saline with Tween-80) 95 % of control.
With `O=c1c2ccccc2sc2ccc(Br)cc12`, the T/C runs as follows: (dose: 100.0 mg/kg/injection, schedule: Q01DX009 (ip), vehicle: Klucel (hydroxypropylcellulose) (HPC)) 110 % of control; (dose: 200.0 mg/kg/injection, schedule: Q01DX009 (ip), vehicle: Klucel (hydroxypropylcellulose) (HPC)) 100 % of control; (dose: 400.0 mg/kg/injection, schedule: Q01DX009 (ip), vehicle: Klucel (hydroxypropylcellulose) (HPC)) 102 % of control.
With `O=C1CCC(c2ccccc2)=NN1`, the T/C runs as follows: under setting [1], 102 % of control; under setting [2], 102 % of control; under setting [6], 102 % of control; under setting [7], 89 % of control and 94 % of control.
As to `CCCCCC(CN(C)C)C(=O)/C=C\c1ccc(Cl)cc1Cl` (stereo unspecified), the T/C is, setting by setting: under setting [20], 105 % of control; under setting [8], 97 % of control.
Take `[O-]c1cc2c3c(c1)c1cc4c(cc1c[n+]3C=C2)OCO4`: the T/C is 96 % of control (dose: 3.13 mg/kg/injection, schedule: Q01DX009 (ip), vehicle: water); 121 % of control (dose: 6.25 mg/kg/injection, schedule: Q01DX009 (ip), vehicle: water); 122 % of control under setting [9]; 124 % of control under setting [11]; 114 % of control under setting [14].
Consider `COc1cc2c3cc1Oc1c(O)c(OC)cc4c1[C@H](Cc1ccc(cc1)Oc1cc(ccc1O)C[C@H]3N(C)CC2)N(C)CC4`, for which the T/C is 108 % of control (dose: 10.0 mg/kg/injection, schedule: Q01DX009 (ip), vehicle: water); 114 % of control under setting [10]; 102 % of control and 113 % of control under setting [12]; 118 % of control under setting [7]; 112 % of control (dose: 75.0 mg/kg/injection, schedule: Q01DX009 (ip), vehicle: saline with Tween-80); 88 % of control and 114 % of control under setting [15]. For the same molecule, the T/C is, setting by setting: under setting [17], 118 % of control; (dose: 150.0 mg/kg/injection, schedule: Q01DX009 (ip), vehicle: saline with Tween-80) 119 % of control.
Turning to `NC(=O)Nc1ccccc1`, the T/C was 97 % of control under setting [16]; 100 % of control (dose: 200.0 mg/kg/injection, schedule: Q01DX009 (ip), vehicle: saline); 104 % of control (dose: 400.0 mg/kg/injection, schedule: Q01DX009 (ip), vehicle: saline).
As for `CC(=Nc1ccccc1)C1=C(O)C(Cc2ccc(O)cc2)NC1=O` (stereo unspecified), the T/C under setting [2] was 111 % of control.
With `Nc1ccc(OS(=O)(=O)c2ccccc2)cc1`, the T/C is 97 % of control under setting [7], 100 % of control under setting [17], 101 % of control under setting [18] and 90 % of control under setting [19].
Consider `COc1cc2cc(c1Cl)N(C)C(=O)CC(OC(=O)CC(C)C)C1(C)OC1C(C)C1CC(O)(NC(=O)O1)C(OC)/C=C/C=C(C)C2` (stereo unspecified), for which the T/C was 122 % of control (dose: 3.1 micrograms/kg/injection, schedule: Q01DX009 (ip), vehicle: saline + alcohol); 150 % of control and 160 % of control (dose: 6.25 micrograms/kg/injection, schedule: Q01DX009 (ip), vehicle: saline + alcohol); 157 % of control and 169 % of control and 173 % of control (dose: 12.5 micrograms/kg/injection, schedule: Q01DX009 (ip), vehicle: saline + alcohol); 170 % of control (dose: 15.0 micrograms/kg/injection, schedule: Q01DX009 (ip), vehicle: saline + alcohol); 164 % of control and 168 % of control and 183 % of control (dose: 25.0 micrograms/kg/injection, schedule: Q01DX009 (ip), vehicle: saline + alcohol); 179 % of control (dose: 30.0 micrograms/kg/injection, schedule: Q01DX009 (ip), vehicle: saline + alcohol). The T/C reads like this: (dose: 50.0 micrograms/kg/injection, schedule: Q01DX009 (ip), vehicle: saline + alcohol) 163 % of control; (dose: 60.0 micrograms/kg/injection, schedule: Q01DX009 (ip), vehicle: saline + alcohol) 191 % of control.
For the molecule `O=C(O)C1(C(=O)O)CCCCC1.[NH2-].[NH2-].[Pt+2]`, the T/C was 159 % of control under setting [20] and 188 % of control under setting [8].
Take `CCCCCCCCCOCCOCCOCCN`: the T/C under setting [3] was 98 % of control and the T/C under setting [4] was 90 % of control.
